According to US9068080B2, “Merocyanine derivatives” (BASF SE, priority 2006, dated 2015):

Test: UV absorption spectrum (λmax, ε) of the merocyanine UV filters
Type: physicochemical

Compound | UV λmax (in CH3CN/H2O) | UV λmax (in EtOH) | ε (molar extinction at λmax) (in EtOH)
CC1(C)CC(NCCC[Si](C)(O[Si](C)(C)C)O[Si](C)(C)C)=CC(=C(C#N)C#N)C1 [MC 07] | 382 nm | 381 nm | 52829
CCOC(=O)/C(C#N)=C1\C=C(NCCC[Si](C)(O[Si](C)(C)C)O[Si](C)(C)C)CC(C)(C)C1 [MC 08] | – | 388 nm | 50383
CCOC(=O)/C(C#N)=C1/C=C(NCCC[Si]2(C)O[Si](C)(CCCNC3=C/C(=C(\C#N)C(=O)OCC)CC(C)(C)C3)O[Si](C)(CCCNC3=C/C(=C(\C#N)C(=O)OCC)CC(C)(C)C3)O[Si](C)(CCCNC3=C/C(=C(\C#N)C(=O)OCC)CC(C)(C)C3)O2)CC(C)(C)C1 (stereo not shown) [MC 11] | – | 388 nm | 181817
CCOC(=O)/C(C#N)=C\C=C\N(C)CCC[Si]1(C)O[Si](C)(CCCN(C)/C=C/C=C(/C#N)C(=O)OCC)O[Si](C)(CCCN(C)/C=C/C=C(/C#N)C(=O)OCC)O[Si](C)(CCCN(C)/C=C/C=C(/C#N)C(=O)OCC)O1 (stereo not shown) [MC 12] | 381 nm | – | –
CCOC(=O)/C(C#N)=C\C=C\N(C)CCC[Si](C)(O[Si](C)(C)C)O[Si](C)(C)C [MC 13] | 381 nm | 380 nm | 69116
CN(/C=C/C=C(C#N)C#N)CCC[Si](C)(O[Si](C)(C)C)O[Si](C)(C)C [MC 14] | 383 nm | – | –
CN(/C=C/C=C(C#N)C#N)CCC[Si]1(C)O[Si](C)(CCCN(C)/C=C/C=C(C#N)C#N)O[Si](C)(CCCN(C)/C=C/C=C(C#N)C#N)O[Si](C)(CCCN(C)/C=C/C=C(C#N)C#N)O1 (stereo not shown) [MC 15] | 378 nm | – | –
